Columns and labels:
[1] = system: HCT116 human colorectal carcinoma cells; test: CellTiter-Glo Luminescent Cell Viability Assay; type: cell-based; conditions: HCT-116, 72 h, 3 days
Procedure, shortened: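 CellTiter-Glo luminescence gave viability after 3 days of compound exposure in HCT116 cells grown in DMEM/10% FBS. Final concentrations ran from 5 to 0.0002 […] in 1:3 steps, each in triplicate, with IC50 derived from the curves.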

[2] = molecular target: T1, DDB1DB/DCAF15 and RBM39 R1R2 complex (Homo sapiens, UniProt Q14498+Q66K64); test: DCAF15 RBM39 Complex Formation Assay (FRET); type: binding; conditions: FRET ratio Em 665/Em 615, incubated overnight at 4° C.
T1 construct: Amino acids 150 to 331 of RBM39 were cloned into pGEX4T3; GST (from vector pGEX4T3); TEV cleavage site (N); made in house; host or cells: DDB1DB/His-DCAF15: baculovirus/Sf9 co-expression; RBM39 R1R2: E. coli (pGEX4T3)
Procedure, shortened: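 Ternary complex formation read by TR-FRET (Em 665/615, excitation 340 nm) after overnight incubation at 4° C of 20 nM baculovirus DDB1DB/His-DCAF15 and 50 nM E. coli RBM39 RRM1-RRM2 FLAG fragment with 14-point, 3-fold compound dilutions from 1 μM; EC50 from 4-parameter fit.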

T1 sequence (Q66K64 whole entry, the tested form may be a part): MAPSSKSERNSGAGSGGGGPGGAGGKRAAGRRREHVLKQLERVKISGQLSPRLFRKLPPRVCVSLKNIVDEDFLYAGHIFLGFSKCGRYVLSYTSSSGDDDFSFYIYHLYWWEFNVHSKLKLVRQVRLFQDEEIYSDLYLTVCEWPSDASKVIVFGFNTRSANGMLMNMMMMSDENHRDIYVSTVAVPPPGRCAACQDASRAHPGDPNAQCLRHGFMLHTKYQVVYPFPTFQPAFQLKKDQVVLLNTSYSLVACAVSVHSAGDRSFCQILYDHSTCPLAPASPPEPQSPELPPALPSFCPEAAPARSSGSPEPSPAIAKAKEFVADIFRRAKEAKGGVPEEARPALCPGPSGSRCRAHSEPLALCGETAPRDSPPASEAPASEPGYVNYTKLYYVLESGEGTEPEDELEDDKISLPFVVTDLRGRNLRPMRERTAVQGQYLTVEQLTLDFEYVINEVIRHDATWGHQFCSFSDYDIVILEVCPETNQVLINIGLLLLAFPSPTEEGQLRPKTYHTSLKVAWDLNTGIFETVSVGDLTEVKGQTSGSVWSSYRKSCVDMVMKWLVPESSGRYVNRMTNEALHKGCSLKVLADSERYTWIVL
T1 sequence (Q14498 150-331): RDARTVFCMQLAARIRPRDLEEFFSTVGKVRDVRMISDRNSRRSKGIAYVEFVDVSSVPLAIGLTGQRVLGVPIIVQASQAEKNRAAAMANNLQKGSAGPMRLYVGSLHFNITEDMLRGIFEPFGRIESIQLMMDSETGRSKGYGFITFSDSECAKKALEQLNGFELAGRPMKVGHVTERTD
T1 sequence (Q16531 with tags, fused parts or gaps DEL396-708 partner): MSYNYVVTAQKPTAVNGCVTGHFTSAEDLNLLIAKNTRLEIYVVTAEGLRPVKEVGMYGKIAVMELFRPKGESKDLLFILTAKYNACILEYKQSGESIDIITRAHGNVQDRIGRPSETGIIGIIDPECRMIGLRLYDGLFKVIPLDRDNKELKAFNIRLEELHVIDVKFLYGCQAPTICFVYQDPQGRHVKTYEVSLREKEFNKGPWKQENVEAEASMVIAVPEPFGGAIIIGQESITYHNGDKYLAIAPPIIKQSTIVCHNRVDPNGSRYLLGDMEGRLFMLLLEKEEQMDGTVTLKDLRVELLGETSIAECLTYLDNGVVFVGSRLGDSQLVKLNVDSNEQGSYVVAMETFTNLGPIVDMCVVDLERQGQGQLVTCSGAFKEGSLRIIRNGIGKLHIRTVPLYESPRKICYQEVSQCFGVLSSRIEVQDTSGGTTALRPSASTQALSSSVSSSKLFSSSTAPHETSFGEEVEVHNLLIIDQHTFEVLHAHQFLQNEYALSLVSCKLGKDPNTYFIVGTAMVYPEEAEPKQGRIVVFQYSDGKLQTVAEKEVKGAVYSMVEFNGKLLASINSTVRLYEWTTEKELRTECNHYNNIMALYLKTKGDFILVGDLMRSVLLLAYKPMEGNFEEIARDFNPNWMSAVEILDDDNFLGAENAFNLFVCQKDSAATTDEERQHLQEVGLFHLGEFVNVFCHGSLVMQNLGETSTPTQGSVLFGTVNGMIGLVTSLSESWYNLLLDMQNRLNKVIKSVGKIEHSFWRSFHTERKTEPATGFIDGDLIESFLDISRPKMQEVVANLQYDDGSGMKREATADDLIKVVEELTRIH

Compound	EC50 [1]	IC50 [2]
CCn1ncc(S(=O)(=O)Nc2ccc(C)c3c(C#N)c[nH]c23)c1N [Compound 271, 5-amino-N-(3-cyano-4-methyl-1H-indol-7-yl)-1-ethyl-pyrazole-4-sulfonamide]	< 250 nM	< 250 nM
Cc1ccc(NS(=O)(=O)c2cnn(C3COC3)c2F)c2[nH]cc(C#N)c12 [Compound 144, N-(3-cyano-4-methyl-1H-indol-7-yl)-5-fluoro-1-(oxetan-3-yl)pyrazole-4-sulfonamide]	250 to 1000 nM	< 250 nM
Cc1ccc(NS(=O)(=O)c2cnn([C@@H](CO)CF)c2)c2[nH]cc(C#N)c12 [Compound 246, N-(3-cyano-4-methyl-1H-indol-7-yl)-1-[(1S)-1-(fluoromethyl)-2-hydroxy-ethyl]pyrazole-4-sulfonamide]	250 to 1000 nM	< 250 nM
Cc1ccc(NS(=O)(=O)c2cnn(CC3(F)CN(C(=O)OC(C)(C)C)C3)c2)c2[nH]cc(C#N)c12 [Compound 255, tert-butyl 3-[[4-[(3-cyano-4-methyl-1H-indol-7-yl)sulfamoyl]pyrazol-1-yl]methyl]-3-fluoro-azetidine-1-carboxylate]	250 to 1000 nM	< 250 nM
CCn1ncc(S(=O)(=O)Nc2ccc(Cl)c3c(C#N)c[nH]c23)c1N [Compound 273, 5-amino-N-(4-chloro-3-cyano-1H-indol-7-yl)-1-ethyl-pyrazole-4-sulfonamide]	< 250 nM	< 250 nM
Cc1ccc(NS(=O)(=O)c2cnn(CC3CC3(F)F)c2)c2[nH]cc(C#N)c12 (centres unmarked) [Compound 79, N-(3-cyano-4-methyl-1H-indol-7-yl)-1-[(2,2-difluorocyclopropyl)methyl]pyrazole-4-sulfonamide]	250 to 1000 nM	< 250 nM
CC(C)(CO)n1cc(S(=O)(=O)Nc2ccc(Cl)c3c(C#N)c[nH]c23)c(Cl)n1 [Compound 260, 3-chloro-N-(4-chloro-3-cyano-1H-indol-7-yl)-1-(2-hydroxy-1,1-dimethyl-ethyl)pyrazole-4-sulfonamide]	> 1000 nM	< 250 nM
Cc1ccc(NS(=O)(=O)c2cnn(C[C@@H](C)CO)c2)c2[nH]cc(C#N)c12 [Compound 264, N-(3-cyano-4-methyl-1H-indol-7-yl)-1-[(2R)-3-hydroxy-2-methyl-propyl]pyrazole-4-sulfonamide]	< 250 nM	< 250 nM
Cc1ccc(NS(=O)(=O)c2cnn(C(C)(C)CO)c2Cl)c2[nH]cc(C#N)c12 [Compound 244, 5-chloro-N-(3-cyano-4-methyl-1H-indol-7-yl)-1-(2-hydroxy-1,1-dimethyl-ethyl)pyrazole-4-sulfonamide]	< 250 nM	< 250 nM
Cn1ncc(S(=O)(=O)Nc2ccc(Cl)c3c(C#N)c[nH]c23)c1N [Compound 180, 5-amino-N-(4-chloro-3-cyano-1H-indol-7-yl)-1-methyl-pyrazole-4-sulfonamide]	< 250 nM	< 250 nM
N#Cc1c[nH]c2c(NS(=O)(=O)c3cn[nH]c3)ccc(Cl)c12 [Compound 121, N-(4-chloro-3-cyano-1H-indol-7-yl)-1H-pyrazole-4-sulfonamide]	250 to 1000 nM	< 250 nM
Cc1ccc(NS(=O)(=O)c2cnn(C(F)(F)CO)c2)c2[nH]cc(C#N)c12 [Compound 301, N-(3-cyano-4-methyl-1H-indol-7-yl)-1-(1,1-difluoro-2-hydroxy-ethyl)pyrazole-4-sulfonamide]	< 250 nM	< 250 nM
Cn1cc(S(=O)(=O)Nc2ccc(F)c3c(Cl)c[nH]c23)cn1 [Compound 54, N-(3-chloro-4-fluoro-1H-indol-7-yl)-1-methyl-pyrazole-4-sulfonamide]	250 to 1000 nM	< 250 nM
Cc1ccc(NS(=O)(=O)c2cnn(CC(C)(C)C#N)c2)c2[nH]cc(C#N)c12 [Compound 76, N-(3-cyano-4-methyl-1H-indol-7-yl)-1-(2-cyano-2-methyl-propyl)pyrazole-4-sulfonamide]	250 to 1000 nM	< 250 nM
Cc1ccc(NS(=O)(=O)c2cnn(C3(CF)COC3)c2)c2[nH]cc(C#N)c12 [Compound 117, N-(3-cyano-4-methyl-1H-indol-7-yl)-1-[3-(fluoromethyl)oxetan-3-yl]pyrazole-4-sulfonamide]	< 250 nM	< 250 nM
C[C@@H](CO)Cn1cc(S(=O)(=O)Nc2ccc(Cl)c3c(C#N)c[nH]c23)cn1 [Compound 265, N-(4-chloro-3-cyano-1H-indol-7-yl)-1-[(2R)-3-hydroxy-2-methyl-propyl]pyrazole-4-sulfonamide]	250 to 1000 nM	< 250 nM
Cc1ccc(NS(=O)(=O)c2cnn(C3CCC(F)(F)CC3)c2)c2[nH]cc(C#N)c12 [Compound 86, N-(3-cyano-4-methyl-1H-indol-7-yl)-1-(4,4-difluorocyclohexyl)pyrazole-4-sulfonamide]	250 to 1000 nM	< 250 nM

Compound	EC50 [1]	IC50 [2]
Cc1ccc(NS(=O)(=O)c2cnn(CC3(C#N)CC3)c2)c2[nH]cc(C#N)c12 [Compound 145, N-(3-cyano-4-methyl-1H-indol-7-yl)-1-((1-cyanocyclopropyl)methyl)-1H-pyrazole-4-sulfonamide]	250 to 1000 nM	< 250 nM
Cc1ccc(NS(=O)(=O)c2cnn(CC(F)(F)F)c2)c2[nH]cc(C#N)c12 [Compound 60, N-(3-cyano-4-methyl-1H-indol-7-yl)-1-(2,2,2-trifluoroethyl)pyrazole-4-sulfonamide]	< 250 nM	< 250 nM
Cc1ccc(NS(=O)(=O)c2cnn(CC(N)=O)c2)c2[nH]cc(C#N)c12 [Compound 141, 2-[4-[(3-cyano-4-methyl-1H-indol-7-yl)sulfamoyl]pyrazol-1-yl]acetamide]	> 1000 nM	< 250 nM
O=S(=O)(Nc1cccc2c(Cl)c[nH]c12)c1cnn(C2CC(O)C2)c1 (centres unmarked) [Compound 83, N-(3-chloro-1H-indol-7-yl)-1-(3-hydroxycyclobutyl)pyrazole-4-sulfonamide]	250 to 1000 nM	< 250 nM
CNC(=O)Cn1cc(S(=O)(=O)Nc2ccc(C)c3c(C#N)c[nH]c23)cn1 [Compound 139, 2-[4-[(3-cyano-4-methyl-1H-indol-7-yl)sulfamoyl]pyrazol-1-yl]-N-methyl-acetamide]	> 1000 nM	< 250 nM
O=S(=O)(Nc1cccc2c(Cl)c[nH]c12)c1cnn(CC2CC2)c1 [Compound 51, N-(3-chloro-1H-indol-7-yl)-1-(cyclopropylmethyl)pyrazole-4-sulfonamide]	250 to 1000 nM	< 250 nM
CC(C)(O)Cn1ncc(S(=O)(=O)Nc2ccc(F)c3c(C#N)c[nH]c23)c1Cl [Compound 280, 5-chloro-N-(3-cyano-4-fluoro-1H-indol-7-yl)-1-(2-hydroxy-2-methyl-propyl)pyrazole-4-sulfonamide]	> 1000 nM	< 250 nM
Cc1ccc(NS(=O)(=O)c2cnn(CCC(C)(C)O)c2)c2[nH]cc(C#N)c12 [Compound 221, N-(3-cyano-4-methyl-1H-indol-7-yl)-1-(3-hydroxy-3-methyl-butyl)pyrazole-4-sulfonamide]	< 250 nM	< 250 nM
Cn1cc(S(=O)(=O)Nc2ccc(Cl)c3c(Cl)c[nH]c23)cn1 [Compound 81, N-(3,4-dichloro-1H-indol-7-yl)-1-methyl-pyrazole-4-sulfonamide]	< 250 nM	< 250 nM
N#CC1(Cn2cc(S(=O)(=O)Nc3cccc4c(Cl)c[nH]c34)cn2)CC1 [Compound 52, N-(3-chloro-1H-indol-7-yl)-1-[(1-cyanocyclopropyl)methyl]pyrazole-4-sulfonamide]	250 to 1000 nM	< 250 nM
N#Cc1c[nH]c2c(NS(=O)(=O)c3cnn(CC4(O)CCC4)c3)ccc(Cl)c12 [Compound 179, N-(4-chloro-3-cyano-1H-indol-7-yl)-1-[(1-hydroxycyclobutyl)methyl]pyrazole-4-sulfonamide]	250 to 1000 nM	< 250 nM
Cc1ccc(NS(=O)(=O)c2cnn(C)c2N)c2[nH]nc(C#N)c12 [Compound 304, 5-amino-N-(3-cyano-4-methyl-1H-indazol-7-yl)-1-methyl-pyrazol-4-sulfonamide]	< 250 nM	< 250 nM
N#Cc1c[nH]c2c(NS(=O)(=O)c3cnn(C(CO)(CO)CCl)c3)ccc(Cl)c12 [Compound 164, N-(4-chloro-3-cyano-1H-indol-7-yl)-1-[1-(chloromethyl)-2-hydroxy-1-(hydroxymethyl)ethyl]pyrazole-4-sulfonamide]	250 to 1000 nM	< 250 nM
Cc1ccc(NS(=O)(=O)c2cnn(C(F)CO)c2)c2[nH]cc(C#N)c12 (centres unmarked) [Compound 297, N-(3-cyano-4-methyl-1H-indol-7-yl)-1-(1-fluoro-2-hydroxy-ethyl)pyrazole-4-sulfonamide]	< 250 nM	< 250 nM
Cc1ccc(NS(=O)(=O)c2cn(CC(C)(C)O)nc2F)c2[nH]cc(C#N)c12 [Compound 205, N-(3-cyano-4-methyl-1H-indol-7-yl)-3-fluoro-1-(2-hydroxy-2-methyl-propyl)pyrazole-4-sulfonamide]	250 to 1000 nM	< 250 nM
O=S(=O)(Nc1cccc2c(Cl)c[nH]c12)c1cnn(-c2ncc(Cl)cc2F)c1 [Compound 15, 1-(5-chloro-3-fluoro-2-pyridyl)-N-(3-chloro-1H-indol-7-yl)pyrazole-4-sulfonamide]	> 1000 nM	< 250 nM
O=S(=O)(Nc1ccc(Cl)c2c(Cl)c[nH]c12)c1cnn(C2COC2)c1 [Compound 143, N-(3,4-dichloro-1H-indol-7-yl)-1-(oxetan-3-yl)pyrazole-4-sulfonamide]	< 250 nM	< 250 nM

— patent US20250368627A1, “PYRAZOLESULFONAMIDES AS ANTITUMOR AGENTS” (Peloton Therapeutics, Inc., a fully owned subsidiary of …, priority 2019, published 2025)
